Key:
Human alpha-thrombin = biological target: T1, Human alpha-thrombin (Homo sapiens, UniProt P00734); assay: Thrombin counterscreen for selectivity, fluorogenic substrate assay; assay type: biochemical; settings: Human alpha-thrombin 12.5 nM, Boc-Val-Pro-Arg-AMC 20 μM, 10 min preincubation
T1 construct: Human alpha-thrombin (Enzyme Research Labs); purchased Enzyme Research Labs
Experimental: Counterscreens for Selectivity:
In a 96-well white opaque plate, 80 μl of assay buffer was added to each well. Test compounds were added, and serially diluted as above, to generate a concentration range of approximately 1-100 μM. […] 80 μl of this enzyme solution was added to the assay wells. The enzyme/compound mixtures were incubated for 10 minutes at room temperature. Fluorogenic substrate (Boc-Val-Pro-Arg-7-amido-4-methylcoumarin; Sigma) was added to assay wells at a final concentration of 20 μM. The assay plate was spun for 1 minute at 1500 g and then read at 37° C. in a SpectraMax M2 plate reader (λex=380 nm and λem=460 nm). Activity was quantified as the rate of change in fluorescence, which corresponds to the rate of substrate cleavage.

Human FXIIa = biological target: T2, Human FXIIa (Homo sapiens, UniProt P00748); assay: Factor XIIa (FXIIa) inhibitory activity, chromogenic substrate assay; assay type: biochemical; settings: Human FXIIa 12.5 nM, Pefachrome XIIa 400 μM, 10 min preincubation
T2 construct: active coagulation factor XII (FXIIa); purchased Enzyme Research Labs
T2 sequence (P00748 373-615 limits assumed): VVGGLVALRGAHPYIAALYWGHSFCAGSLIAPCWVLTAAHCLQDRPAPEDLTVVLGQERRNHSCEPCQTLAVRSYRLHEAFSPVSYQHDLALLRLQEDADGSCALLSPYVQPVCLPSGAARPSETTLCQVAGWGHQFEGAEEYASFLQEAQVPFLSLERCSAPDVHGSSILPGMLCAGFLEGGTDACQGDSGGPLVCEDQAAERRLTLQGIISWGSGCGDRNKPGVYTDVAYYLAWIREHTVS
T2 sequence (P00748 20-372 partner limits assumed): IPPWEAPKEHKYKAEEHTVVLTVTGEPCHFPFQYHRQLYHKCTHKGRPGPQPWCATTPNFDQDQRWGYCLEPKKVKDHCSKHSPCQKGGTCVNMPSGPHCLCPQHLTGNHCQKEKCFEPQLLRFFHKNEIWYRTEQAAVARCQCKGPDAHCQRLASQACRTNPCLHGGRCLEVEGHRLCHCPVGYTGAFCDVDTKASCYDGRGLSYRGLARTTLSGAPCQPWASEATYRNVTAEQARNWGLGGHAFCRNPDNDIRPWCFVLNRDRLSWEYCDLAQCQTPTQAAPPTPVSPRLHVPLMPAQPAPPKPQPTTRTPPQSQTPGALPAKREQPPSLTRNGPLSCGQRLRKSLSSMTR
In short: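 Activity was taken as the rate of absorbance increase at 405 nm, read at 37 °C after adding 400 μM (final) Pefachrome XIIa. Compounds spanning roughly 1–100 μM were first preincubated with enzyme for 10 min at room temperature in HEPES pH 7.4-buffered HBSS/TBS-Tween.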

IC50 (Human alpha-thrombin) [µM] | IC50 (Human FXIIa) [µM] | SMILES
> 100 | 0.07 | Nc1c2c(nn1C(=O)[C@H]1CCNc3ccc(F)cc31)C[C@H](O)CC2 (single isomer, unassigned) [Example 185, ((6R*)-3-amino-6-hydroxy-4,5,6,7-tetrahydroindazol-2-yl)((4S*)-6-fluoro-1,2,3,4-tetrahydroquinolin-4-yl)methanone]
22 | 1 | CS(=O)(=O)N1CCC(C(=O)n2nc3c(c2N)CCCC3)c2ccccc21 (stereo not shown) [Example 99, (3-amino-4,5,6,7-tetrahydroindazol-2-yl)(1-(methylsulfonyl)-1,2,3,4-tetrahydroquinolin-4-yl)methanone]
> 10 | > 10 | O=C(Nc1[nH]nc2c1CCCC2)C1OCCc2ccccc21 (stereo not shown) [Example 14, N-(4,5,6,7-tetrahydro-2H-indazol-3-yl)isochroman-1-carboxamide]
44 | 0.04 | CCn1c(C)cc2c(C(=O)n3nc4c(c3N)CCCC4)cccc21 [Example 38, (3-amino-4,5,6,7-tetrahydroindazol-2-yl)(1-ethyl-2-methyl-1H-indol-4-yl)methanone]
> 80 | 0.09 | CO[C@@H]1CCc2nn(C(=O)[C@@H]3CCNc4ccc(F)cc43)c(N)c2C1 (single isomer, unassigned) [Example 180, ((5R*)-3-amino-5-methoxy-4,5,6,7-tetrahydroindazol-2-yl)((4R*)-6-fluoro-1,2,3,4-tetrahydroquinolin-4-yl)methanone]
22 | 17 | Cc1cc2ccc(C(=O)n3nc4c(c3N)CCCC4)cc2o1 [Example 60, (3-amino-4,5,6,7-tetrahydroindazol-2-yl)(2-methylbenzofuran-6-yl)methanone]
> 150 | 1.5 | Cc1cccc2c1NCC[C@H]2C(=O)n1nc2c(c1N)CC[C@H](O)C2 (single isomer, unassigned) [Example 197, ((6S*)-3-amino-6-hydroxy-4,5,6,7-tetrahydroindazol-2-yl)((4R*)-8-methyl-1,2,3,4-tetrahydroquinolin-4-yl)methanone]
> 80 | > 80 | Nc1nn(C(=O)[C@H]2CCNc3ccccc32)c2c1C[C@H](O)CC2 (single isomer, unassigned) [Example 167, ((5R*)-3-amino-5-hydroxy-4,5,6,7-tetrahydroindazol-1-yl)((4S*)-1,2,3,4-tetrahydroquinolin-4-yl)methanone]
28 | 0.02 | Nc1c2c(nn1C(=O)c1cccc3[nH]c(C4CC4)cc13)CCCC2 (single isomer, unassigned) [Example 53, (3-amino-4,5,6,7-tetrahydroindazol-2-yl)(2-cyclopropyl-1H-indol-4-yl)methanone]
> 50 | > 50 | CCc1cscc1C(=O)n1nc(N)c2c1CCCC2 (single isomer, unassigned) [Example 12, (3-amino-4,5,6,7-tetrahydroindazol-1-yl)(4-ethylthiophen-3-yl)methanone]
> 100 | 35 | CCc1cc2c(C(=O)n3nc(N)c4c3CCCC4)cccc2n1CC (single isomer, unassigned) [Example 69, (3-amino-4,5,6,7-tetrahydroindazol-1-yl)(1,2-diethyl-1H-indol-4-yl)methanone]
6 | 0.4 | O=C(c1cccc2[nH]ccc12)n1cc2c(n1)CCCC2 [Example 27, (1H-indol-4-yl)(4,5,6,7-tetrahydroindazol-2-yl)methanone]
> 50 | > 50 | Nc1nn(C(=O)c2cccc3[nH]ccc23)c2c1CCCC2 (single isomer, unassigned) [Example 2, (3-amino-4,5,6,7-tetrahydroindazol-1-yl)(1H-indol-4-yl)methanone]
> 100 | 5 | Cc1sc2ccccc2c1C(=O)n1nc2c(c1N)CCCC2 (single isomer, unassigned) [Example 23, (3-Amino-4,5,6,7-tetrahydroindazol-2-yl)(2-methylbenzo[b]thiophen-3-yl)methanone]
> 50 | 7.5 | Nc1c2c(nn1C(=O)C1CCc3ccccc31)CCCC2 (stereo not shown) [Example 46, (3-amino-4,5,6,7-tetrahydroindazol-2-yl)(2,3-dihydro-1H-inden-1-yl)methanone]
30 | 0.1 | Nc1c2c(nn1C(=O)C1CCNc3ccc(F)cc31)CCC(F)(F)C2 (single isomer, unassigned) [Example 173, (S*)-(3-amino-5,5-difluoro-4,5,6,7-tetrahydroindazol-2-yl)(6-fluoro-1,2,3,4-tetrahydroquinolin-4-yl)methanone]
> 100 | 15 | CCc1ccccc1C(=O)n1nc2c(c1N)CCCC2 [Example 40, (3-amino-4,5,6,7-tetrahydroindazol-2-yl)(2-ethylphenyl)methanone]
> 80 | 0.35 | Nc1c2c(nn1C(=O)[C@H]1CCCc3[nH]c(Cl)cc31)CC[C@H](O)C2 (single isomer, unassigned) [Example 127, ((5S*)-3-amino-5-hydroxy-4,5,6,7-tetrahydroindazol-2-yl)((4S*)-2-chloro-4,5,6,7-tetrahydro-1H-indol-4-yl)methanone]
> 100 | > 100 | Cc1csc(C)c1C(=O)n1nc(N)c2c1CCCC2 (single isomer, unassigned) [Example 17, (3-amino-4,5,6,7-tetrahydroindazol-1-yl)(2,4-dimethylthiophen-3-yl)methanone]
> 50 | > 50 | Cn1ccc2c(C(=O)n3nc(N)c4c3CCCC4)cccc21 (single isomer, unassigned) [Example 8, (3-amino-4,5,6,7-tetrahydroindazol-1-yl)(1-methyl-1H-indol-4-yl)methanone]
> 100 | 0.06 | Cc1cc2c(C(=O)n3nc4c(c3N)CC(O)CC4)cccc2[nH]1 (stereo not shown) [Example 161]
> 100 | > 100 | Nc1c2c(nn1C(=O)c1cccc3[nH]cnc13)CCCC2 [Example 48, (3-amino-4,5,6,7-tetrahydroindazol-2-yl)(1H-benzo[d]imidazol-4-yl)methanone]
> 50 | 0.3 | Cc1cc2c([nH]1)CCCC2C(=O)n1nc2c(c1N)CCCC2 (stereo not shown) [Example 81, (3-amino-4,5,6,7-tetrahydroindazol-2-yl)(2-methyl-4,5,6,7-tetrahydro-1H-indol-4-yl)methanone]
> 60 | 0.4 | Nc1c2c(nn1C(=O)C1CCNc3ccc(F)cc31)CCC(NC(=O)OCc1ccccc1)C2 (single isomer, unassigned) [Example 190, Benzyl N-[(5S*)-3-amino-2-[(6-fluoro-1,2,3,4-tetrahydroquinolin-4-yl)carbonyl]-4,5,6,7-tetrahydro-2H-indazol-5-yl]carbamate]
> 80 | 1.3 | Nc1c2c(nn1C(=O)[C@H]1CCNc3ccc(Cl)cc31)CC[C@H](O)C2 (single isomer, unassigned) [Example 143, ((5S*)-3-amino-5-hydroxy-4,5,6,7-tetrahydroindazol-2-yl)((4S*)-6-chloro-1,2,3,4-tetrahydroquinolin-4-yl)methanone]
> 100 | 25 | CCc1ccccc1C(=O)n1nc(N)c2c1CCCC2 [Example 152]

— patent US10538512B2, “Aminoacylindazole immunomodulators for treatment of autoimmune diseases” (The Rockefeller University, priority 2016, dated 2020)
